Values quoted from earlier work in publication PMC10686834, “Targeting myeloid chemotaxis to reverse prostate cancer therapy resistance” (Nature, 2023).

How the values were obtained:
[1] = tested on: CACO-2 cells; parameters: method as in AZD5069 Investigator Brochure (IB); conditions: at 0.85 μmol/L, ref AZD5069 Investigator Brochure (IB); cited from earlier work
[2] = tested on: P-glycoprotein (P-gp; MDR1) transporter mRNA; parameters: method as in AZD5069 Investigator Brochure (IB); conditions: human hepatocytes; ref AZD5069 Investigator Brochure (IB); cited from earlier work
[3] = tested on: CYP2D6; parameters: method as in AZD5069 Investigator Brochure (IB); conditions: at concentrations of up to 100 μmol/L; ref AZD5069 Investigator Brochure (IB); cited from earlier work
[4] = tested on: monkey; conditions: in vivo; cited from earlier work
[5] = tested on: CYP2E1; parameters: method as in AZD5069 Investigator Brochure (IB); conditions: at concentrations of up to 100 μmol/L; ref AZD5069 Investigator Brochure (IB); cited from earlier work

In the case of C[C@@H](Oc1cc(NS(=O)(=O)N2CCC2)nc(SCc2cccc(F)c2F)n1)[C@@H](O)CO [AZD5069], the efflux ratio [1] is listed as 57, the “induction of P-glycoprotein (P-gp; MDR1) transporter mRNA” value [2] is listed as “concentration dependent induction” and the “inhibition of CYP2D6” value [3] is listed as “not an inhibitor”. The “tolerated single doses (maximum feasible dose)” value [4] was ≤ 350 mg/kg BD and the “inhibition of CYP2E1” value [5] was “not an inhibitor”.
